Measured values from paper PMC4057637, “Efficacy of novel antibacterial compounds targeting histidine kinase YycG protein” (Applied Microbiology and Biotechnology, 2014).

What was measured:
[1] = system: mature (24-h-old) biofilms of S. epidermidis ATCC 35984; test: Bacterial viability in mature biofilms by CLSM with Live/Dead staining; assay type: cell-based; conditions: Staphylococcus epidermidis, ATCC35984, 16 h, read-out: proportion of viable cells in mature biofilms
Method: A diluted overnight culture of the bacteria was inoculated into cell culture glass bottom dishes (WPI, USA) and incubated at 37 °C for 24 h. […] The biofilms were washed with PBS and stained with SYTO9 and propidium iodide (PI), both of which were used at a concentration of 1 μM. SYTO9-stained live cells and PI-stained cells dead in biofilms were visualized by a Leica TCS SP5 confocal laser scanning microscope with a ×63 1.4-NA oil immersion objective. Three-dimensional biofilm images were created by IMARIS 7.0.0 software (Bitplane).

[2] = system: 24-h biofilms of S. epidermidis ATCC 35984; test: Rabbit subcutaneous S. epidermidis biofilm infection model; assay type: in vivo, New Zealand White rabbits; conditions: vancomycin 128 mg/l, local injection at 0, 24, 48 h; 72 h
Method: To test the effectiveness in vivo of H2-74 and H2-81, 24-h biofilms of S. epidermidis grown on polyethylene disks were imbedded subcutaneously into the New Zealand White rabbits and treated with the derivatives for 72 h in a modification of the method used previously (He et al. [2011]). Disks were cut from polyethylene 96-well plates (8 mm diameter, 1 mm thickness), sterilized with 75 % ethanol and placed in a Petri dish (100 mm diameter). An overnight culture of S. epidermidis ATCC 35984 (20 ml) was inoculated into the dish and incubated at 37 °C for 24 h. The disks covered with biofilms were then implanted subcutaneously in female New Zealand White rabbits (2.0–2.5 kg) that had been anesthetized with pentobarbital sodium (5 mg/kg i.v.). Four incisions (10 mm) were made on the back of the rabbit along the spine bilaterally after removal of fur, and the sub cutis was carefully dissected to form a 2-cm × 3-cm cavity. Two biofilm-covered polyethylene disks were implanted into each cavity, and to minimize the effect of between-animal variation, four different treatments were given locally to each rabbit.
Vancomycin (128 mg/l) and 0.1 % DMSO were administered as the controls. Twenty-four hours after the last treatment, the rabbits were euthanized and the implants were taken out with sterile forceps. Biofilms were scraped from the disks, and the viable bacteria were determined by CFU counting, as previously described (He et al. [2011]). All animals were housed and used in compliance with the guidelines of the Institute of Animal Care and Use Committee, and the protocol was approved by the committee.

[3] = system: S. epidermidis ATCC 35984; test: Derivatives combined with vancomycin or cefazolin (FIC index); assay type: cell-based; conditions: S. epidermidis ATCC 35984
Source text: Combination antimicrobial therapy is widely used to take advantage of different mechanisms of action. It may potentiate the effect of individual antimicrobial agents by synergic action (Bijnsdorp et al. [2011]; Cokol et al. [2011]). The glycopeptide antibiotics, such as vancomycin, can bind the peptidoglycan side chains in the cell wall and prevent cross-linking during cell wall synthesis. Vancomycin has been considered to be one of the most reliable therapeutic agents against staphylococcal infections, but it is unable to clear biofilms even at high concentration (128 mg/l) (Climo et al. [1999]; Darouiche et al. [1994]; Tenover et al. [2001]). […] YycGF also plays an important role in the synthesis of peptidoglycan in B. subtilis and S. aureus (Bisicchia et al. [2007]; Dubrac and Msadek [2004]). In a preliminary study, we assessed the effects of the combined application of the derivatives with vancomycin and cefazolin against S. epidermidis ATCC 35984 according to the method of Odds ([2003]) (Cottagnoud et al. [2003]). […] No antagonism was observed between the derivatives and vancomycin or cefazolin (Table S1).
17 Table S1. The derivatives combined with vancomycin or cefazolin against S. epidermidis
Derivatives Antibiotics MIC (mg/L) FICIa Synergyb
Derivative Antibiotic In combination
alone alone (Derivative/Antibiotic)
19 a The FICI was calculated as FIC indexes= (MICderivative A in combination/MICderivative A
20 alone)+(MICantibiotic B in combination/MIC antibiotic B alone).
21 b The interaction between the two antibacterials is noted as follows: FIC index≤0.5,
22 Synergy (+); 0.5<FIC index≤4 (-), No interaction; FIC≥4.0, Antagonism.

Structure (SMILES) | viability at 128 µg/mL [1] | viable bacteria recovered from implanted disks [2] | MIC Antibiotic alone [3]
CN[C@H](CC(C)C)C(=O)N[C@H]1C(=O)N[C@@H](CC(N)=O)C(=O)N[C@H]2C(=O)N[C@H]3C(=O)N[C@H](C(=O)N[C@H](C(=O)O)c4cc(O)cc(O)c4-c4cc3ccc4O)[C@H](O)c3ccc(c(Cl)c3)Oc3cc2cc(c3O[C@@H]2O[C@H](CO)[C@@H](O)[C@H](O)[C@H]2O[C@H]2C[C@](C)(N)[C@H](O)[C@H](C)O2)Oc2ccc(cc2Cl)[C@H]1O [vancomycin, reference compound] | 88.6% | 5.21 ± 0.24 log10 CFU/cm^2 | 4 µg/mL
Cc1nnc(SCC2=C(C(=O)O)N3C(=O)[C@@H](NC(=O)Cn4cnnn4)[C@H]3SC2)s1 [cefazolin, reference compound] | – | – | 8 µg/mL
